Test results: patent publication US5891917A, “Certain acrylonitrile-sulfonamide derivatives” (Sugen, Inc., priority 1997, dated 1999)
Like-named read-outs stand apart in the source and are kept apart here.

Assays:
Insulin Receptor = target: T1, Insulin Receptor (Homo sapiens, UniProt P06213); test: Cellular Insulin Receptor ELISA; format: cell-based; conditions: H25 cells, 100 nM insulin; read-out: ELISA DATA: IR
T1 construct: expressed in transfected cells; host or cells: H25 (NIH3T3 line overexpressing Insulin Receptor)
T1 sequence (P06213 763-1382 limits assumed, species assumed): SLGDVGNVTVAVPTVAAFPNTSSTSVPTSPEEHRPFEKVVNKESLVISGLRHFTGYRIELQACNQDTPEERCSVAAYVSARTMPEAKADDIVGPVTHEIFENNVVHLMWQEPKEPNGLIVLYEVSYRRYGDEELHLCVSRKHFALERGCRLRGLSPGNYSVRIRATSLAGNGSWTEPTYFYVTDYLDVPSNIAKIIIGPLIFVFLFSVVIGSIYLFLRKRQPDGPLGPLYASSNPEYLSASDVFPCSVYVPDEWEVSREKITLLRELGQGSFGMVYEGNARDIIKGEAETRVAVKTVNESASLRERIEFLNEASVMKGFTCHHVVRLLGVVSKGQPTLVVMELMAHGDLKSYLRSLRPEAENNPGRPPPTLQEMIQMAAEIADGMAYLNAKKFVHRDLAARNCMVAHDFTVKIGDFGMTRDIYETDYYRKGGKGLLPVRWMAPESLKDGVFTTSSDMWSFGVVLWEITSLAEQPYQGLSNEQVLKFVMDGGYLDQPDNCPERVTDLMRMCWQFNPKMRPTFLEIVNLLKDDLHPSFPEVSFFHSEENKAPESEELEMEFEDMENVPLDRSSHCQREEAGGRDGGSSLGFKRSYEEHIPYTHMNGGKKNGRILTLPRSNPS
T1 sequence (P06213 28-758 partner limits assumed, species assumed): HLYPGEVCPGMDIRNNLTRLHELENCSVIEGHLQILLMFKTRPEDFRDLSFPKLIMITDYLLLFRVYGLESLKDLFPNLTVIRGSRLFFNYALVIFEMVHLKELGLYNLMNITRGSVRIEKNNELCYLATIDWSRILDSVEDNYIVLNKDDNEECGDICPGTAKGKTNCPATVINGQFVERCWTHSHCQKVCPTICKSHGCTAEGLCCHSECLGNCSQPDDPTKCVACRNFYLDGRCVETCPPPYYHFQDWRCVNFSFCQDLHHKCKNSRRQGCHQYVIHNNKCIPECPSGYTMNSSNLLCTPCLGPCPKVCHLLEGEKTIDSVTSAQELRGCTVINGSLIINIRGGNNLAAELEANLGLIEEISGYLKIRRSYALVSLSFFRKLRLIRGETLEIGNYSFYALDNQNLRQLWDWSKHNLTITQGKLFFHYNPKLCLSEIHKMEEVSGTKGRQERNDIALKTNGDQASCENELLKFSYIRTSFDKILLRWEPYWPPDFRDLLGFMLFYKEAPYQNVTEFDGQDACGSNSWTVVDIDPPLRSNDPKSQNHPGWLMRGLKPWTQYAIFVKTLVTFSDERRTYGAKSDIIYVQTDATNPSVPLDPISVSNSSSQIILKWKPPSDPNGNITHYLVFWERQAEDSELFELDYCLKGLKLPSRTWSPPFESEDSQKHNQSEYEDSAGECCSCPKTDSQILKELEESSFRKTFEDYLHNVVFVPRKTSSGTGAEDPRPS
Method: Cellular Insulin Receptor ELISA (Version I)
The following protocol describes the cell line, reagents and procedures used to measure phosphotyrosine level on Insulin Receptor, which indicates Insulin Receptor tyrosine kinase activity.
MATERIALS AND REAGENTS (1). The cell line used in this assay is H25 (ATCC #CRL 8017), an NIH3T3 cell line which overexpresses Insulin Receptor.
(2). H25 cells are grown in an incubator with 5% CO2 at 37° C. The growth media is DMEM+10% FBS (heat inactivated)+2 mM L-Glutamine.
(3). For ELISA plate coating, the monoclonal anti-IR antibody named BBE is used. Antibodies are purified by the Enzymology Lab, SUGEN, Inc.
(1). The cells, grown in tissue culture dish (10 cm, Corning 25020-100) to 80-90% confluence, are harvested with Trypsin-EDTA (0.25%, 0.5 ml/D-100, GIBCO).
(2). Resuspend the cells in fresh DMEM+10% FBS+2 mM L-Glutamine, and transfer to 96-well tissue culture plate (Coming, 25806-96) at 20,000 cells/well (100 ul/well). Incubate for 1 day then replace medium to 0.01% serum medium (90/ul) and incubate in 5% CO2 and 37° C. overnight.
(1). Coat the ELISA plate (Corning 25805-96) with Anti-IR Antibody at 0.5 ug/well in 100 ul PBS at least 2 hours.
(2). Remove the coating solution, and replace with 100 ul Blocking Buffer, and shake for 30 minutes. Remove the blocking buffer and wash the plate just before adding lysate.
(1). The drugs are tested in serum-free condition.
(2). Dilute drug stock (in 100% DMSO) 1:10 with DMEM in 96-well poly-propylene plate, and transfer 10 ul/well of this solution to the cells to achieve final drug dilution 1:100, and final DMSO concentration of 1.0%. Incubate the cells in 5% CO2 at 37° C. for 2 hours.
(3). Prepare fresh cell lysis buffer (HNTG*) HNTG 2 ml EDTA 0.1 ml Na3VO4 0.1 ml Na4P2O7 0.1 ml H20 7.3 ml HNTG* 10 ml.
(4). After drug incubation for two hours, transfer 10 ul/well of 1 μM Insulin in PBS to the cells (Final Conc=100 nM), and incubate at 5% CO2 at 37° C. for 10 minutes.
(5). Remove media and add 100 ul/well HNTG* and shake for 10 minutes. Look at cells under microscope to see if they are adequately lysed.
(6). Use a 12-channel pipette to scrape the cells from the plate, and homogenize the lysate by repeat aspiration and dispense. Transfer all the lysate to the antibody coated ELISA plate [V.2.(2)], and shake for 1 hour.
(7). Remove the lysate, wash the plate, transfer anti-pTyr (1:3,000 with TBST) 100 ul/well, and shake for 30 minutes.
(8). Remove anti-pTyr, wash the plate, transfer detection antibody (1:3,000 with TBST) 100 ul/well, and shake for 30 minutes.
(9). Remove detection antibody, wash the plate, and transfer fresh ABTS/H2O2 (1.2 ul H2O2 to 10 ml ABTS) 100 ul/well to the plate to start color development.

3T3/IGF-1R cells = test: IGF-1 Receptor Growth Assay (3T3/IGF-1R); format: cell-based
Method: IGF-1 Receptor Growth Assay
3T3/IGF-1 R (10% FBS/2 mM glutamine/DMEM)
Cell Plating--Trypsinize and count 3T3/IGF-1R and NIH 3T3 c7 cells. Dilute in growth media to 2000 cells/200 μl and seed flat bottom 96-well plates with 200 μl/well, one plate for two compounds for each cell line.
Compound preparation--Add DMSO to each compound to make 100 mM stock solutions.
Aliquot each compound to 3-4 sterile screw cap tubes and store at -20° C. After thawing, make sure the compound has gone completely back into solution. Throw away after 3 freeze/thaws.
3T3/IGF-1R cells--For each 96-well plate, make 15 ml of 10 nM IGF-1/0.5% FBS/2 mM glutamine/DMEM (30 μl of 5 μM IGF-1/15 ml).
Aliquot 1.5 ml 10 nM IGF-1/0.5% FBS to a sterile tube for each compound to be tested (the first time a compound is tested, use a 15 ml tube in case it is necessary to add extra medium to get it into solution).
Add 3 μl of 100 mM stock of each compound to a tube so 200 μM final. Shake or vortex until it goes into solution. If it is necessary to add additional medium, note the final concentration.
For the DMSO control, prepare 0.5 ml/plate of 0.2% DMSO/10 nM IGF-1/0.5% FBS (2 μl DMSO/ml).
For every two compounds, aliquot 130 μl 10 nM IGF-1/0.5% FBS to wells in columns 2-11 of a 96-well round bottom plate.
Add 260 μl of each compound to four wells in column 12.
Do 2-fold dilutions (130 μl) from columns 12 to 3 on each plate (column 2 will be for the untreated control), mixing thoroughly.
Remove medium from 3T3/IGF-1 R cells, one plate at a time.
Transfer 120 μl from each well on a compound dilution plate to the corresponding well of cells.
Add 120 μl 0.2% DMSO/10 nM IGF-1/0.5% FBS to four wells in column 1.
Add 120 μl 0.5% FBS (without IGF-1) to other four wells in column 1 for negative control.
Refeed--Repeat steps above, adding exactly the same IGF-1 and compound concentration to each well as before.
Analysis of cells--Look at wells with the highest concentrations for each compound to make sure it has not precipitated.
Detection--Follow the steps for fixing and staining described in the SOP for SRB Assays.
Data analysis--Find averages and standard deviations for each set of four OD's.
Using wells in column 2 (treated with IGF-1 but not compound) as 100%, calculate percent of control for each concentration of compound.
Determine the fold difference between the IGF-1-treated and untreated cells. It should be 2-3-fold.
Determine the percent of control for 0.2% DMSO.
Use a curve fit method to graph percent of control vs. log(molar concentration) and determine the IC50.

[1] = read-out: Growth Data: 3T3/IGF-1R-0.5% FBS
[2] = read-out: Growth Data: 3T3/IGF-1R-10% FBS

| Compound | IC50 (Insulin Receptor) [µM] | IC50 (3T3/IGF-1R cells; [1]) [µM] | IC50 (3T3/IGF-1R cells; [2]) [µM] |
| --- | --- | --- | --- |
| N#C/C(=C\c1ccc(O)cc1Cl)S(=O)(=O)NCc1ccccc1 [Compound 733] | > 100 |  |  |
| N#C/C(=C\c1ccc(O)cc1Cl)S(=O)(=O)NCCCc1ccccc1 [Compound 734] | 51 |  |  |
| CC(C)c1cc(/C=C(\C#N)S(=O)(=O)Cc2cccc(C(F)(F)F)c2)cc(C(C)C)c1O [Compound 736] | 15.1 | 14.7 | 74 |
| CC(C)c1cc(/C=C(\C#N)S(=O)(=O)/C(C#N)=C/c2cc(C(C)C)c(O)c(C(C)C)c2)cc(C(C)C)c1O [Compound 745] | 27 |  |  |

Continued, in another order:

| IC50 (Insulin Receptor) [µM] | Compound | IC50 (3T3/IGF-1R cells; [1]) [µM] | IC50 (3T3/IGF-1R cells; [2]) [µM] |
| --- | --- | --- | --- |
| 12 | CC(C)c1cc(/C=C(\C#N)S(=O)(=O)c2ccccc2)cc(C(C)C)c1O [Compound 731] | 25 | 92 |
| 8.8 | CC(C)c1cc(/C=C(\C#N)S(=O)(=O)NCc2ccccc2)cc(C(C)C)c1O [Compound 732] | 9.2 | 79 |
| 9.2 | CC(C)c1cc(/C=C(\C#N)S(=O)(=O)c2ccc(F)cc2)cc(C(C)C)c1O [Compound 741, (E)-3-(3,5-Diisopropyl-4-hydroxyphenyl)-2-(4-fluorophenylsulfonyl)acrylonitrile] | 35 | 91 |
